Results published in patent US20220380432A1, “Acylated Calcitonin Mimetics” (KeyBioscience AG, priority 2018, published 2022).
Numbered stars: 1 amine (or outer) side, 2 acyl side, 3 side chain; on linkers, the order of the positions; unused ones are H or OH. Bridge positions count the residues as written; N and C are the ends. Square brackets hold non-standard residues; d marks the D form. Side chains are listed from the residue outwards. Ends that are not written are not given here. Peptide text beside a SMILES is read from it. * marks the point of attachment. C18 diacid = O=C(O)CCCCCCCCCCCCCCCCC(=O)*; γGlu = O=C(O)[C@H](CCC(=O)[*:2])N[*:1]; AEEA = NCCOCCOCC(=O)O; Aib = CC(C)(N)C(=O)O

T1: Amylin Receptor (AMY-R) (Homo sapiens (Human), UniProt P30988)
T1 sequence 1: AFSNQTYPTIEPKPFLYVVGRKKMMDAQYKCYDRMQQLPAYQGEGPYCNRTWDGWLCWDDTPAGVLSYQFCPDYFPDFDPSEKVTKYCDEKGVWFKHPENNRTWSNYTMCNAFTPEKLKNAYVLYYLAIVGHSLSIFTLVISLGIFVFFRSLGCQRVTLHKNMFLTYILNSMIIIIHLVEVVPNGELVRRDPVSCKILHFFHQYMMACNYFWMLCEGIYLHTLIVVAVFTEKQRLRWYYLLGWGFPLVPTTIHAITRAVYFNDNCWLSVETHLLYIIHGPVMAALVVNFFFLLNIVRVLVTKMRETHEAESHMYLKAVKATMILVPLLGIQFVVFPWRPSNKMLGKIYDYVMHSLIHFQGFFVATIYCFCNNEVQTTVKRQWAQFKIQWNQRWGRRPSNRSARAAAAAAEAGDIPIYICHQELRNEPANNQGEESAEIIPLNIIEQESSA
T1 sequence 2: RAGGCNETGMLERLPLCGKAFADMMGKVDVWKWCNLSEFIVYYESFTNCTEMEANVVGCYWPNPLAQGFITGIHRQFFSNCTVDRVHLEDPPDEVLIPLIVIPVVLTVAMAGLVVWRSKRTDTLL

T2: Calcitonin Receptor (CTR) (Homo sapiens (Human), UniProt P30988)
T2 sequence: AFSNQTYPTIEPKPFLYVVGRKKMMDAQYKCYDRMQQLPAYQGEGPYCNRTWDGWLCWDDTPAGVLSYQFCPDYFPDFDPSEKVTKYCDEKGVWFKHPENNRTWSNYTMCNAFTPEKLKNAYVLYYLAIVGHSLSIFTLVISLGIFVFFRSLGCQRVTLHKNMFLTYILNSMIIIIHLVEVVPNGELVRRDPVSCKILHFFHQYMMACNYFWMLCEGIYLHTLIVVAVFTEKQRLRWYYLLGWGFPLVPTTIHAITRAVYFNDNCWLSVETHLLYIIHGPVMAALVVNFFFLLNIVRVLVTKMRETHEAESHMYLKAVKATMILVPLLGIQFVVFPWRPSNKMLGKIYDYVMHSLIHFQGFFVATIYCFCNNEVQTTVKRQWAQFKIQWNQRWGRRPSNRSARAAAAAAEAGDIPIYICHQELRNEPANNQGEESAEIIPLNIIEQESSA


Tests used:
[1] = test system: 20 week HFD SD rats; experiment: Single dose food intake and body weight test in HFD SD rats (Examples 3, 4, 5, 8, 10, 12); format: in vivo, rat; details: Table 4.4: acylation linkers, backbone KBP-066; single s.c. dose 4 nmol/kg, HFD SD rats
Excerpt: In the animal model studies, 12 week healthy Sprague Dawley (SD) rats were used to assess the potency of the acylated KBPs. In some examples they were fed normal chow during prior and during the tests, whereas in other examples, the 12 week healthy SD rats were fed high fat diet (HFD) for eight weeks prior to the test and for the duration of the test.
Rats were single caged four days prior to the test. Rats were randomized by weight into eleven groups (Vehicle (0.9% NaCl), KBPs (doses: 36 nmol/kg (150-157 μg/kg)). They were fasted overnight and then treated with a single dose of peptide or vehicle in the morning using subcutaneous administration. Food intake was monitored in the following intervals (0-4 hours, 4-24 hours, 24-48 hours . . . 144-168 hours). Body weight was measured at baseline and every 24 hours post s.c injection.
Rats were single caged four days prior to the test. Rats were randomized by weight into eleven groups (Vehicle (0.9% NaCl), KBPs (doses: 4 nmol/kg (^17 μg/kg), 12 nmol/kg (^50 μg/kg) or 36 nmol/kg ([…])). They were fasted overnight and then treated with a single dose of peptide or vehicle in the morning using subcutaneous administration. Food intake was monitored in the following intervals (0-4 hours, 4-24 hours, 24-48 hours . . . 144-168 hours). Body weight was measured at baseline and every 24 hours post s.c injection.
Single high dose effect of A11/3 acylated variants of KBP-042 and KBP-066 on food intake and body weight in 20 week HFD SD rats. Rats were single caged four days prior to the test. Rats were randomized by weight into eleven groups (Vehicle (0.9% NaCl), KBPs (doses: 300 nmol/kg (^1000 μg/kg)).
The rats were fasted overnight and then treated with a single dose of peptide or vehicle in the morning using subcutaneous administration. Food intake was monitored in the following intervals (0-4 hours, 4-24 hours, 24-48 hours . . . […]). Body weight was measured at baseline and every 24 hours post s.c injection.
Rats were single caged four days prior to the test. Rats were randomized by weight into eight groups (Vehicle (0.9% NaCl), KBPs (doses: 3 nmol/kg (^10-11 μg/kg)). They were fasted overnight and then treated with a single dose of peptide or vehicle in the morning using subcutaneous administration. Food intake was monitored in the following intervals (0-4 hours, 4-24 hours, 24-48 hours, 48-72 hours, and 72-96 hours). Body weight was measured at baseline and at 4 hour, 24 hours, 48 hours, 72 hours and 96 hours post s.c injection.
Rats were single caged four days prior to the test. Rats were randomized by weight into eight groups (Vehicle (0.9% NaCl), KBPs (doses: 4 nmol/kg (^10-11 μg/kg)). They were fasted overnight and then treated with a single dose of peptide or vehicle in the morning using subcutaneous administration. Food intake was monitored in the following intervals (0-4 hours, 4-24 hours, 24-48 hours, 48-72 hours, and 72-96 hours). Body weight was measured at baseline and at 4 hour, 24 hours, 48 hours, 72 hours and 96 hours post s.c. injection. Two backbones were tested, KBP-066 and KBP-021.
Rats were single caged four days prior to the test. Rats were randomized by weight into eight groups (Vehicle (0.9% NaCl), KBPs (doses: 4 nmol/kg (^13-14 μg/kg)). They were fasted overnight and then treated with a single dose of peptide or vehicle in the morning using subcutaneous administration. Food intake was monitored in the following intervals (0-4 hours, 4-24 hours, 24-48 hours, 48-72 hours, and 72-96 hours). Body weight was measured at baseline and at 4 hour, 24 hours, 48 hours, 72 hours and 96 hours post s.c injection.

[2] = Thioflavin T (ThT) fibrillation screening assay; format: physicochemical; details: for Peptide Fibrillation Thioflavin T ΔFluorescence 18 h Assay Score: Table 4.4: acylation linkers, backbone KBP-066, tier from 18 h fluorescence signal, 37° C.
Description: Thioflavin T (T3516, Sigma). Assay stock ThT is prepared as a 10 mM solution in 5 mM sodium phosphate pH 7.2. Aliquots are stored, protected from light, at −20° C. Stock ThT is thawed and diluted just prior to use.
For the tested calcitonin mimetics (hereinafter referred to as “acylated KBPs” or simply “KBPs”), final buffer conditions are 10 mM Tris-HCl pH 7.5.
The final peptide concentration in the wells should be 100-200 μM, and the final ThT concentration should be 4 μM. ThT is added last (10 μL).
Thioflavin T assays were also conducted. Thioflavin T (ThT) is a dye widely used for the detection of amyloid fibrils. In the presence of fibrils, ThT has an excitation maximum at 450 nm and enhanced emission at 480 nm, whereas ThT is essentially non-fluorescent at these wavelengths when not bound to amyloid fibrils.
Thus, ThT in combination with a fluorescent plate reader is an ideal tool for screening large numbers of in vitro samples for the presence of amyloid fibrils. […]
The plate is loaded into a fluorescent plate reader, such as a SpectraMax with SoftMax Pro 7.0.2 software, and the template set to 37° C. with excitation wavelength at 450 nm and emission wavelength at 480 nm.
Plate reader should measure fluorescence every 10 minutes for 24 hours with a five-second plate shake before the first read and a three-second plate shake before all other reads. Alternatively, the plate is read after the following incubation times; 0, 1, 2, 4 and 24 hours.
Plot relative fluorescence units (RFU) as a function of time. Fibrillation is determined as an increase in RFU over baseline as described by Nielsen et. al.
In this filing four fibrillations tiers have been defined based on the 18 h fluorescence signal to get a single output that reflects the peptides fibrillation potential: None=<1000 RFU, Low=1000-3000 RFU, Medium=3000-10000, High=>10000

[3] = test system: male ZDF rats; experiment: Chronic study in male ZDF rats (food intake, body weight, FBG, HbA1c, OGTT); format: in vivo, rat; details: 62-day study
Description: A chronic study was performed in male ZDF rats. (obese homozygous recessive (fa/fa) strain: 370) (Charles River, USA). Rats were delivered 5 weeks of age. The rats were housed 2-3 per cage.
Rats were delivered to the animal facility of Nordic Bioscience at five weeks of age (DAY −6). Rats were acclimatized for three days. HbA1c and BW was registered (DAY −3). Rats were randomized based on HbA1c (primarily) and BW (secondly) at […]. The study was initiated at DAY 1.
Animals were dosed once daily with KBP-066 or saline (vehicle). Dosing with KBP-066A11.03 was performed once every third day. Dosing was administered subcutaneously (SC) around noon.
Saline: Dosage volume was 1 mL/kg. […]
DAY −3: HbA1c measurement DAY 1: (first day of study), rats were fasted for 6 h and a BG and blood sample was taken. […] Hb1Ac is measured during the OGTT at t=120 or t=180. […]
Food intake was monitored daily. Body weight was monitored daily for first three weeks, then twice weekly after week three.
Fasting blood glucose was monitored every two weeks using Accu-Check® Avia monitoring system (Roche Diagnostics, Rotkreuz, Switzerland): Measurement was taken from the tail vein (25 G needle).
Rats were non-fasted for the first (randomization) and second (after the second OGTT) HbA1c measurement. A single drop of blood was applied to the HbA1c cassette and the HbA1c was measured using a DCA Vantage Analyzer. […]

[4] = molecular target: T1, Amylin Receptor (AMY-R); experiment: cell-based or functional assay
[5] = molecular target: T2, Calcitonin Receptor (CTR); experiment: cell-based or functional assay

| Molecule | Food Intake ΔFOOD Sustained Attenuation (4 nmol/kg) Hours [1] [h] | Peptide Fibrillation Thioflavin T ΔFluorescence 18 h Assay Score [2] | also measured |
| --- | --- | --- | --- |
| CC(=O)N[C@H]1CSSC[C@@H](C(=O)NC(C)(C)C(=O)N[C@@H](CC(C)C)C(=O)NCC(=O)N[C@@H](CCCCNC(=O)COCCOCCNC(=O)CC[C@H](NC(=O)CCCCCCCCCCCCCCCCC(=O)O)C(=O)O)C(=O)N[C@@H](CC(C)C)C(=O)N[C@@H](CO)C(=O)N[C@@H](CCC(N)=O)C(=O)N[C@@H](CC(=O)O)C(=O)N[C@@H](CC(C)C)C(=O)N[C@@H](Cc2c[nH]cn2)C(=O)N[C@@H](CCCNC(=N)N)C(=O)N[C@@H](CC(C)C)C(=O)N[C@@H](CCC(N)=O)C(=O)N[C@H](C(=O)N[C@@H](Cc2ccc(O)cc2)C(=O)N2CCC[C@H]2C(=O)N[C@@H](CCCCN)C(=O)N[C@H](C(=O)N[C@@H](CC(=O)O)C(=O)N[C@H](C(=O)NCC(=O)N[C@@H](C)C(=O)N[C@@H](CC(N)=O)C(=O)N[C@@H](C)C(=O)N2CCC[C@H]2C(N)=O)C(C)C)[C@@H](C)O)[C@@H](C)O)NC(=O)[C@H]([C@@H](C)O)NC(=O)[C@H](CO)NC(=O)[C@H](CC(C)C)NC(=O)[C@H](CC(N)=O)NC(=O)[C@H](CO)NC1=O [KBP-384] (Ac-CSNLSTC[Aib]LGK([AEEA-γGlu-C18 diacid])LSQDLHRLQTYPKTDVGANAP-NH2; disulfide 1-7 (inferred)) | 72 | Low (Low=1000-3000 RFU) | fibrillation tier (score in the ThT assay) ([2]; 18 h fluorescence signal): low |
| CC(=O)N[C@H]1CSSC[C@@H](C(=O)NC(C)(C)C(=O)N[C@@H](CC(C)C)C(=O)NCC(=O)N[C@@H](CCCCNC(=O)COCCOCCNC(=O)COCCOCCNC(=O)COCCOCCNC(=O)CC[C@H](NC(=O)CCCCCCCCCCCCCCCCC(=O)O)C(=O)O)C(=O)N[C@@H](CC(C)C)C(=O)N[C@@H](CO)C(=O)N[C@@H](CCC(N)=O)C(=O)N[C@@H](CC(=O)O)C(=O)N[C@@H](CC(C)C)C(=O)N[C@@H](Cc2c[nH]cn2)C(=O)N[C@@H](CCCNC(=N)N)C(=O)N[C@@H](CC(C)C)C(=O)N[C@@H](CCC(N)=O)C(=O)N[C@H](C(=O)N[C@@H](Cc2ccc(O)cc2)C(=O)N2CCC[C@H]2C(=O)N[C@@H](CCCCN)C(=O)N[C@H](C(=O)N[C@@H](CC(=O)O)C(=O)N[C@H](C(=O)NCC(=O)N[C@@H](C)C(=O)N[C@@H](CC(N)=O)C(=O)N[C@@H](C)C(=O)N2CCC[C@H]2C(N)=O)C(C)C)[C@@H](C)O)[C@@H](C)O)NC(=O)[C@H]([C@@H](C)O)NC(=O)[C@H](CO)NC(=O)[C@H](CC(C)C)NC(=O)[C@H](CC(N)=O)NC(=O)[C@H](CO)NC1=O [KBP-385] (Ac-CSNLSTC[Aib]LGK([AEEA-AEEA-AEEA-γGlu-C18 diacid])LSQDLHRLQTYPKTDVGANAP-NH2; disulfide 1-7 (inferred)) | 72 | None (None=<1000 RFU) |  |
| CSNLSTC(AiB)LGRLSQDLHRLQTYPKTDVGANAP [KBP-066] |  |  | fasting blood glucose (in words) [3]: reduced FBG in a dose dependent manner |
| Ac-CSNLSTCMLGRLSQELHRLQTYPKTDVGANAPK (not fully specified (residue 33); ends and bridges not checked) [KBP-318] |  |  | β-arrestin Fold Recruitment EC50 values (10^-9 M) [4]: 301 nM; β-arrestin Fold Recruitment EC50 values (10^-9 M) [5]: 197 nM |
